Experimental data taken from patent US5395823A, “Neuropeptide Y agonists and partial agonists” (Merrell Dow Pharmaceuticals Inc., priority 1993, dated 1995).

Biological target: receptors for neuropeptide Y (porcine spleen crude membranes)
Experiment: 125I-Bolton-Hunter-neuropeptide Y binding in porcine spleen crude membranes
Details: competition with 0.1 nM BHNPY, room temperature 2 hr, pH 7.4
Description: 145:21-9 (1988). ^125 I-Bolton-Hunter-neuropeptide Y (BHNPY; Amersham) binding was carried out in porcine spleen crude membranes. Membranes from frozen spleen were prepared as described previously for tachykinin peptide binding studies (Buck et al., 1984). An aliquot of membrane preparation (approximately 15 mg tissue) was incubated at room temperature for 2 hr in buffer (pH 7.4) containing the peptide analog, 130 mM NaCl, 2.7 mM KCl, 2 mM MgCl2, 1.8 mM CaCl2, 20 mM HEPES, 4 mg/ml BSA, 40 μg/ml bacitracin, 4 μg/ml leupeptin and […] chymostatin. BHNPY was included in a concentration of 0.1 nM and non-specific binding was determined by the inclusion of 1 μM pNPY. Samples were rapidly filtered over Whatman GF/C filters presoaked overnight in 0.5% histone (type II-AS; Sigma) and washed two times with ice-cold, plain HEPES-salt buffer (pH 7.4). IC50 values for test peptides were calculated from 6 to 10 point competition curves.

- IC50: < 50 nM
Substance: Y--P--S--K--P--D--N--P--G--E--D--A--P--A--E--E--L--S--Y--Y--A--A--L--R--H- -Y--L--N--L--L--T--R--Q--R--Y--# [Example 1]
